Data as given in PubChem BioAssay (NCI).
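Following 48 hours of exposure in 96-well plates, responses at five concentrations were used to interpolate endpoints linearly. TGI: total growth inhibition.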 Where a SMILES comes first, the peptide text is derived from it. [ ]: non-standard residue; d: D form. The star is where a group is joined. Bn2Val = CC(C)[C@@H](C(=O)*)N(Cc1ccccc1)Cc1ccccc1; NH(3,4-diMeO-benzyl) = COc1ccc(CN*)cc1OC; NMeV = CN[C@H](C(=O)O)C(C)C

How the values were obtained:
Experiment in all cases: NCI-60 cell line screen, 48 h
786-0 renal = system: 786-0 renal
A498 renal = system: A498 renal
A549 NSCLC = system: A549 NSCLC
ACHN renal = system: ACHN renal
BT-549 breast = system: BT-549 breast
CAKI-1 renal = system: CAKI-1 renal
CCRF-CEM leukemia = system: CCRF-CEM leukemia
COLO 205 colon = system: COLO 205 colon
DU-145 prostate = system: DU-145 prostate
EKVX NSCLC = system: EKVX NSCLC
HCT-116 colon = system: HCT-116 colon
HCT-15 colon = system: HCT-15 colon
HL-60(TB) leukemia = system: HL-60(TB) leukemia
HOP-62 NSCLC = system: HOP-62 NSCLC
HOP-92 NSCLC = system: HOP-92 NSCLC
HS 578T breast = system: HS 578T breast
HT29 colon = system: HT29 colon
IGROV1 ovarian = system: IGROV1 ovarian
K-562 leukemia = system: K-562 leukemia
KM12 colon = system: KM12 colon
LOX IMVI melanoma = system: LOX IMVI melanoma
M14 melanoma = system: M14 melanoma
MALME-3M melanoma = system: MALME-3M melanoma
MDA-MB-231 breast = system: MDA-MB-231 breast
MDA-MB-435 = system: MDA-MB-435
MDA-N = system: MDA-N
MOLT-4 leukemia = system: MOLT-4 leukemia
NCI-H226 lung = system: NCI-H226 lung
NCI-H23 lung = system: NCI-H23 lung
NCI-H460 lung = system: NCI-H460 lung
NCI-H522 lung = system: NCI-H522 lung
NCI/ADR-RES ovarian = system: NCI/ADR-RES ovarian
OVCAR-3 ovarian = system: OVCAR-3 ovarian
OVCAR-4 ovarian = system: OVCAR-4 ovarian
OVCAR-5 ovarian = system: OVCAR-5 ovarian
OVCAR-8 ovarian = system: OVCAR-8 ovarian
PC-3 prostate = system: PC-3 prostate
RXF 393 renal = system: RXF 393 renal
SF-268 CNS = system: SF-268 CNS
SF-295 CNS = system: SF-295 CNS
SF-539 CNS = system: SF-539 CNS
SK-MEL-2 melanoma = system: SK-MEL-2 melanoma
SK-MEL-28 melanoma = system: SK-MEL-28 melanoma
SK-MEL-5 melanoma = system: SK-MEL-5 melanoma
SK-OV-3 ovarian = system: SK-OV-3 ovarian
SN12C renal = system: SN12C renal
SNB-19 CNS = system: SNB-19 CNS
SNB-75 CNS = system: SNB-75 CNS
SR leukemia = system: SR leukemia
SW-620 colon = system: SW-620 colon
T-47D breast = system: T-47D breast
TK-10 renal = system: TK-10 renal
U251 CNS = system: U251 CNS
UACC-257 melanoma = system: UACC-257 melanoma
UACC-62 melanoma = system: UACC-62 melanoma
HCC-2998 colon = system: HCC-2998 colon
MCF7 breast = system: MCF7 breast
RPMI-8226 leukemia = system: RPMI-8226 leukemia
UO-31 renal = system: UO-31 renal

COc1ccc(CNC(=O)[C@@H]2CCCN2C(=O)[C@@H]2CCCN2C(=O)[C@H](C(C)C)N(C)C(=O)[C@@H](NC(=O)[C@H](C(C)C)N(Cc2ccccc2)Cc2ccccc2)C(C)C)cc1OC (Bn2Val-V[NMeV]PP-{NH(3,4-diMeO-benzyl)})
TGI (786-0 renal): 26.5 µM
TGI (A498 renal): 31.6 µM
TGI (A549 NSCLC): 38.4 µM
TGI (ACHN renal): 28 µM
TGI (BT-549 breast): 34.5 µM
TGI (CAKI-1 renal): 38.1 µM
TGI (CCRF-CEM leukemia): > 100 µM
TGI (COLO 205 colon): 38.7 µM
TGI (DU-145 prostate): 30.1 µM
TGI (EKVX NSCLC): 26.7 µM
TGI (HCT-116 colon): 29.5 µM
TGI (HCT-15 colon): 31.4 µM
TGI (HL-60(TB) leukemia): 6.17 µM
TGI (HOP-62 NSCLC): 32.3 µM
TGI (HOP-92 NSCLC): 28.9 µM
TGI (HS 578T breast): > 100 µM
TGI (HT29 colon): 20.7 µM
TGI (IGROV1 ovarian): 13.4 µM
TGI (K-562 leukemia): > 100 µM
TGI (KM12 colon): 51.5 µM
TGI (LOX IMVI melanoma): 16.4 µM
TGI (M14 melanoma): 29.4 µM
TGI (MALME-3M melanoma): 46.2 µM
TGI (MDA-MB-231 breast): 42.3 µM
TGI (MDA-MB-435): 39 µM
TGI (MDA-N): 30.5 µM
TGI (MOLT-4 leukemia): 72.2 µM
TGI (NCI-H226 lung): 33.4 µM
TGI (NCI-H23 lung): 38.6 µM
TGI (NCI-H460 lung): > 60.5 µM
TGI (NCI-H522 lung): 20.6 µM
TGI (NCI/ADR-RES ovarian): 48.2 µM
TGI (OVCAR-3 ovarian): 27.6 µM
TGI (OVCAR-4 ovarian): 42.6 µM
TGI (OVCAR-5 ovarian): 34 µM
TGI (OVCAR-8 ovarian): 30.3 µM
TGI (PC-3 prostate): 30.8 µM
TGI (RXF 393 renal): 26.7 µM
TGI (SF-268 CNS): > 48.1 µM
TGI (SF-295 CNS): 29.9 µM
TGI (SF-539 CNS): 34 µM
TGI (SK-MEL-2 melanoma): 34.5 µM
TGI (SK-MEL-28 melanoma): 38.5 µM
TGI (SK-MEL-5 melanoma): 20.4 µM
TGI (SK-OV-3 ovarian): 31.4 µM
TGI (SN12C renal): 29.9 µM
TGI (SNB-19 CNS): 30.7 µM
TGI (SNB-75 CNS): 25.7 µM
TGI (SR leukemia): > 100 µM
TGI (SW-620 colon): > 60.8 µM
TGI (T-47D breast): 48.3 µM
TGI (TK-10 renal): 29.5 µM
TGI (U251 CNS): 45.7 µM
TGI (UACC-257 melanoma): 42.9 µM
TGI (UACC-62 melanoma): 29.7 µM

COc1ccc2c(c1)CC[C@@H]1[C@@H]2CC[C@]2(C)C(=O)/C(=C/c3ccc(O)c(OC)c3)C[C@@H]12
TGI (A498 renal): > 100 µM
TGI (A549 NSCLC): > 100 µM
TGI (ACHN renal): > 100 µM
TGI (CAKI-1 renal): > 100 µM
TGI (CCRF-CEM leukemia): > 100 µM
TGI (COLO 205 colon): > 100 µM
TGI (DU-145 prostate): > 100 µM
TGI (EKVX NSCLC): > 100 µM
TGI (HCC-2998 colon): 75.5 µM
TGI (HCT-15 colon): 72.6 µM
TGI (HL-60(TB) leukemia): > 100 µM
TGI (HOP-62 NSCLC): > 100 µM
TGI (HOP-92 NSCLC): > 100 µM
TGI (HT29 colon): > 100 µM
TGI (IGROV1 ovarian): > 100 µM
TGI (K-562 leukemia): > 100 µM
TGI (LOX IMVI melanoma): > 100 µM
TGI (M14 melanoma): > 100 µM
TGI (MCF7 breast): > 100 µM
TGI (MDA-MB-231 breast): > 100 µM
TGI (MDA-MB-435): > 100 µM
TGI (MDA-N): > 100 µM
TGI (MOLT-4 leukemia): 92.1 µM
TGI (NCI-H226 lung): > 100 µM
TGI (NCI-H23 lung): > 100 µM
TGI (NCI-H460 lung): > 100 µM
TGI (NCI/ADR-RES ovarian): > 100 µM
TGI (OVCAR-3 ovarian): > 100 µM
TGI (OVCAR-4 ovarian): > 100 µM
TGI (OVCAR-5 ovarian): > 100 µM
TGI (OVCAR-8 ovarian): > 100 µM
TGI (PC-3 prostate): > 100 µM
TGI (RPMI-8226 leukemia): > 100 µM
TGI (RXF 393 renal): > 100 µM
TGI (SF-295 CNS): > 100 µM
TGI (SK-MEL-2 melanoma): > 100 µM
TGI (SK-MEL-28 melanoma): > 100 µM
TGI (SK-MEL-5 melanoma): > 100 µM
TGI (SK-OV-3 ovarian): > 100 µM
TGI (SNB-19 CNS): > 100 µM
TGI (SR leukemia): > 100 µM
TGI (SW-620 colon): > 100 µM
TGI (T-47D breast): > 100 µM
TGI (TK-10 renal): > 100 µM
TGI (U251 CNS): > 100 µM
TGI (UACC-257 melanoma): > 100 µM
TGI (UACC-62 melanoma): > 100 µM
TGI (UO-31 renal): > 100 µM
